In patent publication US12569542B2, “Treatment of cancer with immune stimulators” (SciClone Pharmaceuticals International (SG) PTE. LTD., priority 2014, dated 2026):
Like-named read-outs stand apart in the source and are kept apart here. Where no end group is shown, it is not given here.

Key:
B16F10 murine melanoma [1] = assay: Subcutaneous B16F10 murine melanoma model, cisplatin positive control (separate historical control study); format: in vivo, mice
Description: (§1) B16F10 murine melanoma model is derived from MB16 line by successive selection of metastatic clones. B16F1 to B16F10 (ATCC Number CRL-6475™) were generated, with F10 being passaged in mice for 10 times, and thus highly metastatic. This model is widely used in studying metastasis mechanisms, evaluating cancer therapeutics. It is also one of the most common syngeneic models for cancer immunotherapy. Both subcutaneous and experimental metastasis models are very useful.
(§2) Tumor volumes and body weights were monitored throughout the study. Cisplatin was administered to the positive control group in a separate historical control study. The negative control group was administered with vehicle only in all studies.
B16F10 mice treated with cisplatin typically show reduced tumor volume (FIG. 1A and Table 3).

[2] = tested on: B16F10 Murine Melanoma (lung metastasis foci); assay: Systemic B16F10 murine melanoma model, lung metastasis foci (independent laboratory); format: in vivo, C57BL/6 mice
[3] = tested on: B16-F10 cells (lung metastases); conditions: for Mean Met Count: Day 15; for Inhibition (%): compared to Group 1; for Deaths NTR / Deaths TR: n = 10
Experimental: (§3) The animals were fed ad libitum water (reverse osmosis, 1 ppm Cl) and NIH 31 Modified and Irradiated Lab Diet® consisting of 18.0% crude protein, 5.0% crude fat, and 5.0% crude fiber. The mice were housed on irradiated Enrich-o'cobs™ bedding in static microisolators on a 12-hour light cycle at 20-22° C. (68-72° F.) and 40-60% humidity. DRS-NC specifically complies with the recommendations of the Guide for Care and Use of Laboratory Animals with respect to restraint, husbandry, surgical procedures, feed and fluid regulation, and veterinary care. The animal care and use program at DRS-NC is accredited by the Association for Assessment and Accreditation of Laboratory Animal Care International, which assures compliance with accepted standards for the care and use of laboratory animals.
(§4) A sixth group of animals was included as the “look-see” group (n=9). B16-F10 cells were harvested during log-phase growth and resuspended at a concentration of 7.5×10^5 cells/mL in PBS. Each mouse received an intravenous (i.v.) tail vein injection of 1.5×10^5 B16-F10 cells (0.2 mL cell suspension) on D1 of the study.
(§5) Test Articles: Anti-PD1 alpha peptide (coded as anti-PD-1-SCE, Lot. No. 5177/0214) and thymosin alpha-1 peptide (Thymalfasin, code-named SR1, Lot. No. 1402-224). DRS-NC assigned code names for the purpose of confidentiality during in-house testing. […] Dosing was not adjusted per body weight. Anti-PD-1-SCE antibody was diluted in PBS to yield a 10.0 mg/mL dosing solution, which provided a 100 mg/kg dosage in a dosing volume of 10 mL/kg. Dosing was not adjusted per body weight. […] Dosing was adjusted per body weight.
(§6) Endpoint: The endpoint of the B16MET-e117 study was defined as 100 metastases per lung set. Two to three animals from the “look-see” group were euthanized in three days intervals beginning on Day 9 and lung metastatic foci were counted. […] The study was terminated on D16 and all animals were euthanized and their metastases counted. Percent inhibition was defined as the difference between the number of metastatic foci of the designated control group and the number of metastatic foci of the drug-treated group, expressed as a percentage of the number of metastatic foci of the designated control group: % Inhibition=[1−(#Focidrug-treated/#Focicontrol)]×100
(§7) Toxicity: Animals were weighed daily for the first five days of the study and twice weekly thereafter. […] Acceptable toxicity was defined as a group mean body-weight loss of less than 20% during the study and not more than one treatment-related (TR) death among ten treated animals. Any dosing regimen resulting in greater toxicity is considered above the maximum tolerated dose (MTD). A death is classified as TR if attributable to treatment side effects as evidenced by clinical signs and/or necropsy, or if due to unknown causes during the dosing period or within fourteen days of the last dose. A death is classified as non-treatment-related (NTR) if there is no evidence that death was related to treatment side effects.
B16F10 Mouse Lung Metastatic Melanoma Model was developed. About 1.5×10^5 B16-F10 cells (0.2 mL cell suspension) were grown in vitro and administered intravenously (Day 0) to female B6D2F1/Crl mice. On Day 1 dosing with test agents initiated.
A “look see”-untreated-group was set to evaluate, over a period of 15 days, the number of metastasis. […] Three days later other three mice were examined. When the met count reached approximately 50-100 counts, all groups in the study were sacrificed and final met counts were established. The “look see” group count was not included in the final efficacy analysis. 50-100 met count defined as the target number because most of the individual metastasis could be count easily and mets were less likely to merge with each other difficulty the counting.

[4] = tested on: B16-F10 cells (lung metastases); conditions: for Mean Met Count / Percent Inhibition: Day 16; for Mean Met Count: SR1 220.51 μg/animal sc bid to end, Anti-PD-1-SCE 100 μg/animal ip biwk ×3, combination at the same doses, Cyclophosphamide 300 mg/kg ip Qd ×1; for Percent Inhibition: [1 − (T/C)] × 100, compared to Group 1 (vehicle); for Deaths NTR (non-treatment-related death) / Deaths TR (treatment-related death): n = 10 per group
Experimental: as §3, §4, §5, §6, §7
Statistical and Graphical Analyses: Prism (GraphPad) for Windows 6.02 was used for all graphical presentations and statistical analyses. The Mann-Whitney U-test, for analysis of medians, was used to determine the statistical significance between D16 B16F10 metastatic foci in control and treated groups. Two-tailed statistical analyses were conducted at P=0.05. A “box and whiskers” diagram was constructed to show the distribution of enumerated metastatic foci for each treatment group on D16.
Prism reports results as non-significant (ns) at P>0.05, significant (symbolized by “*”) at 0.01<P≤0.05, very significant (“**”) at 0.001<P≤0.01, and extremely significant (“***”) at P≤0.001.

IL-1β [5] = assay: Biomarker evaluation in subcutaneous B16F10 murine melanoma model (FIG. 4A); format: in vivo, C57BL/6 mice; conditions: subcutaneously twice a day for 6 days at 0.02, 0.06, 0.2, 0.3, 2, or 6 mg/kg, D4 and D7 after start of dosing
Experimental: FIG. 4A depicts evaluation of IL-1β in subcutaneous B16F10 murine melanoma model in C57BL/6 mice treated with thymosin. ZADAXIN™ (thymalfasin) was administered to mice subcutaneously twice a day for 6 days at 0.02, 0.06, 0.2, 0.3, 2, or 6 mg/kg 10 μL/g. IL-1β levels were lower in ZADAXIN™ (thymalfasin) treated groups compared to vehicle treated groups at D4 and D7 after start of dosing.
(§8) In the studies described above, a group of potential biomarkers were tested in, including IL-7, 11-18, TREM-1, IFN-α, procalcitonin, GM-CSF, IL-1α, IFN-γ, TNF a, IL-2, IL-4, IL-5, IL-6, IL-10, IL-12p70, and IL-1β.

IL-6 = assay: Biomarker evaluation in subcutaneous B16F10 murine melanoma model (FIG. 4C); format: in vivo, C57BL/6 mice; conditions: subcutaneously twice a day for 6 days at 0.02, 0.06, 0.2, 0.3, 2, or 6 mg/kg, D4 and D7 after start of dosing
Experimental: FIG. 4C depicts evaluation of IL-6 in subcutaneous B16F10 murine melanoma model in C57BL/6 mice treated with thymosin. ZADAXIN™ (thymalfasin) was administered to mice subcutaneously twice a day for 6 days at 0.02, 0.06, 0.2, 0.3, 2, or 6 mg/kg 10 μL/g. IL-6 levels were lower in ZADAXIN™ (thymalfasin) treated groups compared to vehicle treated groups at D4 and D7 after start of dosing.
as §8

B16F10 murine melanoma [6] = assay: Subcutaneous B16F10 murine melanoma model, thymosin (Study No. 1 and Study No. 2); format: in vivo, C57BL/6 mice; conditions: for mean tumor size / T/C value: day 14 post tumor inoculation; for tumor growth delay: at tumor size of 1,140 mm^3
Description: as §1
To study the effect of thymosin in treating melanoma, thymosin alpha peptide (ZADAXIN) was administered to mice inoculated with B16F10 in two separate studies:
as §2

IL-1β [7] = assay: Biomarker evaluation in subcutaneous B16F10 murine melanoma model (FIG. 4D); format: in vivo, C57BL/6 mice; conditions: subcutaneously twice a day for 6 days at 0.02, 0.06, 0.2, 0.3, 2, or 6 mg/kg, D4 and D7 after start of dosing
Experimental: FIG. 4D depicts evaluation of IL-1β in subcutaneous B16F10 murine melanoma model in C57BL/6 mice treated with thymosin. ZADAXIN™ (thymalfasin) was administered to mice subcutaneously twice a day for 6 days at 0.02, 0.06, 0.2, 0.3, 2, or 6 mg/kg 10 μL/g. IL-1β levels were lower in ZADAXIN™ (thymalfasin) treated groups compared to vehicle treated groups at D4 and D7 after start of dosing.
as §8

IL-4 = assay: Biomarker evaluation in subcutaneous B16F10 murine melanoma model (FIG. 4B); format: in vivo, C57BL/6 mice; conditions: subcutaneously twice a day for 6 days at 0.02, 0.06, 0.2, 0.3, 2, or 6 mg/kg, D4 and D7 after start of dosing
Experimental: FIG. 4B depicts evaluation of IL-4 in subcutaneous B16F10 murine melanoma model in C57BL/6 mice treated with thymosin. ZADAXIN™ (thymalfasin) was administered to mice subcutaneously twice a day for 6 days at 0.02, 0.06, 0.2, 0.3, 2, or 6 mg/kg 10 μL/g. IL-4 levels were higher in ZADAXIN™ (thymalfasin) treated groups compared to vehicle treated groups at D4 and D7 after start of dosing.
as §8

[8] = Group 9: Cyclophosphomide 300 mg/kg
[9] = Group 13: Cyclophosphamide 300 mg/kg ip qd ×1
[10] = Group 13: Cyclophosphamide 300 mg/kg
[11] = Group 2: SR1 0.4862 μg/animal sc bid to end
[12] = Group 3: SR1 4.86 μg/animal sc bid to end
[13] = Group 4: SR1 48.62 μg/animal sc bid to end

N.N.[Cl][Pt][Cl] [Cisplatin]
Tumor Size (mm^3) on Day 28 (B16F10 murine melanoma [1]; B16F10 mice treated with cisplatin, Day 28, historical control study): 862 ± 233 mm^3 | body weight (B16F10 murine melanoma [1]; B16F10 mice treated with cisplatin, FIG. 1B, result of the toxicity of cisplatin): significantly reduced body weight | T/C Value (%) on Day 28 (B16F10 murine melanoma [1]; cisplatin vs vehicle, Day 28): 30% | T-C (days) at 800 mm^3 (B16F10 murine melanoma [1]; cisplatin vs vehicle, at tumor size 800 mm^3): >4 days

O=P1(N(CCCl)CCCl)NCCCO1 (centres unmarked) [Cyclophosphamide]
Inhibition (%) [2, 8]: 100% | Number of metastasis foci on day 13 (Mean ± SEM) [2, 8]: 0 ± 0 | Mean Met Count [3, 9]: 2 | Inhibition (%) [3, 9]: 99% | Mean BW Nadir ([3]; Group 13: Cyclophosphamide 300 mg/kg, % change from Day 1, nadir Day 2): −8.0% | Deaths NTR [3, 10]: 0 | Deaths TR [3, 10]: 0 | Mean Met Count [4]: 0.5 | Percent Inhibition ([4]; doses as E23): 99.5% | Mean BW Nadir ([4]; lowest group mean body weight, as % change from Day 1, Cyclophosphamide nadir on Day 3, doses as E23): −4.3% | Deaths NTR (non-treatment-related death) ([4]; doses as E23): 0 | Deaths TR (treatment-related death) ([4]; doses as E23): 0

thymosin alpha 1 (Ac-SDAAVDTSSEITTKDLKEKKEVVEEAEN) [TA1]
IL-1β levels compared to vehicle treated groups (IL-1β [5]): lower | IL-6 levels compared to vehicle treated groups (IL-6): lower | tumor growth compared with vehicle treated group (B16F10 murine melanoma [6]; all doses tested, FIG. 2 and FIG. 3): reduced tumor growth | tumor growth compared with vehicle treated group (FIG. 3) (B16F10 murine melanoma [6]; several different doses, all tested doses): statistically significant reduced tumor growth | mean tumor size (B16F10 murine melanoma [6]; study I, TA1 0.2 mg/kg bid i.p. for 7 days): 1,148 mm^3 | tumor growth delay (B16F10 murine melanoma [6]; study I, TA1 0.2 mg/kg): 1.5 days | T/C value (B16F10 murine melanoma [6]; study I, TA1 0.2 mg/kg): 57.56% | mean tumor size (B16F10 murine melanoma [6]; study I, TA1 2 mg/kg bid i.p. for 7 days): 1,384 mm^3 | tumor growth delay (B16F10 murine melanoma [6]; study I, TA1 2 mg/kg): 0.5 days | T/C value (B16F10 murine melanoma [6]; study I, TA1 2 mg/kg): 69.36% | tumor growth (B16F10 murine melanoma [6]; study I, TA1 6 mg/kg, decrease didn't reach a significant difference): can delay tumor growth | weight changes by group (B16F10 murine melanoma [6]; thymosin treated B16F10 mice): no significant weight changes | Inhibition (%) ([2]; Group 3: TA1 0.486 μg/mouse): 20.35% | Number of metastasis foci on day 13 (Mean ± SEM) ([2]; Group 3: TA1 0.486 μg/mouse): 92 ± 9 | Inhibition (%) ([2]; Group 4: TA1 4.86 μg/mouse): 41.83% | Number of metastasis foci on day 13 (Mean ± SEM) ([2]; Group 4: TA1 4.86 μg/mouse): 67 ± 12 | Inhibition (%) ([2]; Group 5: TA1 48.6 μg/mouse): 42.26% | Number of metastasis foci on day 13 (Mean ± SEM) ([2]; Group 5: TA1 48.6 μg/mouse): 66 ± 10 | IL-1β levels compared to vehicle treated groups (FIG. 4D) (IL-1β [7]): lower | Mean Met Count [3, 11]: 186 | Inhibition (%) [3, 11]: −17% | Deaths NTR ([3]; Group 2: SR1 0.4862 μg/animal): 0 | Deaths TR ([3]; Group 2: SR1 0.4862 μg/animal): 0 | Mean Met Count [3, 12]: 182 | Inhibition (%) [3, 12]: −14% | Deaths NTR ([3]; Group 3: SR1 4.86 μg/animal): 0 | Deaths TR ([3]; Group 3: SR1 4.86 μg/animal): 0 | Mean Met Count [3, 13]: 167 | Inhibition (%) [3, 13]: −5% | Deaths NTR ([3]; Group 4: SR1 48.62 μg/animal): 0 | Deaths TR ([3]; Group 4: SR1 48.62 μg/animal): 0 | IL-4 levels compared to vehicle treated groups (IL-4): higher | Mean Met Count [4]: 72.5 | metastases to lung in melanoma model ([4]; Study I): decreases metastases to lung | Percent Inhibition ([4]; doses as E23): 31.5% | Deaths NTR (non-treatment-related death) ([4]; doses as E23): 0 | Deaths TR (treatment-related death) ([4]; doses as E23): 0
